From patent publication US11713470B2, “Targeted gene therapies for pain and other neuro-related disorders” (University of Pittsburgh—Of the Commonwealth System of …, priority 2017, dated 2023)
Entries after “also recorded” stand apart in the source; their conditions may differ.

Tests used:
Assay type in all cases: in vivo, mouse
mice lacking PSAM4 = assay: Mechanical and heat sensitivity at baseline and after CFA or sural-SNI in wildtype C57Bl/6 mice lacking PSAM4; details: 0.1 mpk i.p.
Method: (§1) Mechanical and heat hypersensitivity was tested in adult wildtype male and female C57Bl/6 mice (not injected with mCCK-PSAM4 virus) before and after intraperitoneal injection of (i.p) varenicline (0.1 milligram per kilogram (mpk) (FIG. 13). We also tested these parameters before and 2-5 days after induction of the complete Freund's adjuvant (CFA)-model of inflammatory pain and 7 days after induction of the sural version of the spared nerve injury (SNI) model of neuropathic pain (FIG. 13). Sensitivity to mechanical stimuli was tested by measuring the paw withdrawal threshold to von Frey filaments (PWT) and the paw withdrawal response to a cotton swab (percentage of response) as described previously (Peirs, C. et al. Dorsal Horn Circuits for Persistent Mechanical Pain. Neuron 87, 797-812 (2015)). Heat sensitivity was tested by measuring the withdrawal latency to a radiant heat source using the Hargreaves apparatus (PWL) as described previously (Peirs, C. et al. Dorsal Horn Circuits for Persistent Mechanical Pain. Neuron 87, 797-812 (2015)).

[1] = target: T1, PSAM4 in dorsal horn CCK+ neurons (Homo sapiens, UniProt P23415+P36544, L131G/Q139L/Y217F); assay: Baseline mechanical and heat sensitivity in mice injected with AAV8 mCCK-PSAM4 virus; details: 0.3 mpk i.p., 2 weeks after AAV8 mCCK-PSAM4, 30-60 minutes after drug
T1 sequence (P36544+P23415 fused P36544:L131G/P36544:Q139L/P36544:Y217F): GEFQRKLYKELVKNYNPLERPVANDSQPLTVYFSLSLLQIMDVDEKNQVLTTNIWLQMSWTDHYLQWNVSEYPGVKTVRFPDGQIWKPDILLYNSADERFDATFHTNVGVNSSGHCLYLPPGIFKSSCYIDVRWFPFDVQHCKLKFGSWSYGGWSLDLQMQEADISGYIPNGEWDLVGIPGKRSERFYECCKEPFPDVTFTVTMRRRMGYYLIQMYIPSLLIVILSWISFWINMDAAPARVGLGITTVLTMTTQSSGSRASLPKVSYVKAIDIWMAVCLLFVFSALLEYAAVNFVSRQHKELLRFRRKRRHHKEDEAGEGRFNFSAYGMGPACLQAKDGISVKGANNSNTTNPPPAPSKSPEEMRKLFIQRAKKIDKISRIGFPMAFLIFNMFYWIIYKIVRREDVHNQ
Method: (§2) The mouse cholecystokinin (CCK) promoter with an added chimeric intron to drive expression of α7^L131G, Q139L, Y217F GlyR (PSAM4) was packaged into AAV2/8 and injected into the dorsal horn of 3-week-old wildtype C57Bl/6 male and female mice. Injection of AAV into the dorsal horn was performed as described previously (Peirs, C. et al. Dorsal Horn Circuits for Persistent Mechanical Pain. Neuron 87, 797-812 (2015)). See FIG. 11 for a schematic of the plasmid used to produce these rAAV particles. Briefly, a 2.5 kb fragment of the mouse CCK promoter was subcloned upstream of the PSAM4 gene with the chimeric intron (135 bp) located in between.
as §1
Mice were injected unilaterally in the dorsal horn with AAV8 mCCK-PSAM4 virus and tested two weeks later. […] The ipsilateral plantar hindpaw of the mice was injected with CFA and PWTs and response frequencies tested 3 days later in the absence and presence of varenicline (0.3 mpk, i.p.).

[2] = target: T1, PSAM4 in dorsal horn CCK+ neurons; assay: CFA-induced mechanical allodynia in mice expressing mCCK-PSAM4 in the dorsal horn; details: 0.3 mpk i.p., 3 days after CFA
Method: as §2, with “between. […]” for “between.”

[3] = target: T1, PSAM4 in dorsal horn CCK+ neurons; assay: Sural-SNI-induced mechanical allodynia in mice expressing mCCK-PSAM4 in the dorsal horn; details: 0.3 mpk i.p., 7 days after sural-SNI
Method: as §2, with “between. […]” for “between.”

[4] = uninjured mice without PSAM4, 30-60 minutes after injection

Compound: c1cnc2cc3c(cc2n1)[C@@H]1CNC[C@H]3C1 [varenicline]
- heat hypersensitivity after CFA (mice lacking PSAM4; mice without PSAM4, 2 days after CFA): no effect
- mechanical hypersensitivity after CFA (mice lacking PSAM4; mice without PSAM4, 3 days after CFA): no effect
- mechanical or heat hypersensitivity after sural-SNI (mice lacking PSAM4; mice without PSAM4, 7 days after sural-SNI): no effect
- baseline PWL (withdrawal latency, Hargreaves) (mice lacking PSAM4; [4]): no effect
- baseline PWT (paw withdrawal threshold to von Frey filaments) (mice lacking PSAM4; [4]): no effect
- baseline response frequency to cotton swab (mice lacking PSAM4; [4]): no effect
- baseline PWL [1]: no effect; also recorded: did not alter
- baseline PWT [1]: no effect; also recorded: did not alter
- baseline percentage response (response frequency to cotton swab) [1]: no effect; also recorded: did not alter
- PWT to von Frey filaments after CFA [2]: markedly reversed
- response frequency to cotton swab after CFA [2]: markedly reversed
- PWT to von Frey filaments after sural-SNI [3]: markedly reversed
